Patent publication US20240093150A1, “IMPROVED T-CELLS FOR CANCER THERAPY USING AMINO ACID STARVATION PATHWAYS” (UNIVERSITY HEALTH NETWORK, priority 2021, published 2024)

What was measured:
[1] = tested on: CD8+ T cells; assay: Seahorse and ATP quantification in halo-treated mouse CD8+ T cells; format: cell-based; conditions: for enhanced OXPHOS (basal OCR) in halo-treated cells: inhibitor added concurrent with Halofuginone (3-MA 2.5 mM)
[2] = tested on: P14 CD8+ T cells; assay: Flow cytometry of activated mouse CD8+ T cells treated with halofuginone (cytokines, surface markers, phosphoflow, autophagosome staining); format: cell-based; conditions: for IFN-γ in halo-treated cells: inhibitor concurrent with Halofuginone (3-MA 2.5 mM; Oligomycin 1 uM)
[3] = tested on: CD8+ T cells; assay: Targeted mass spectrometry metabolic profile of halo-treated cells; format: cell-based, mouse; conditions: halo vs vehicle
Method: Seahorse was performed as previously described (Saibil et al., 2019). ATP quantification was performed using a commercial kit (Sigma) according to the recommended protocol. For metabolic profiling of Halo treated cells, mass spectrometry was performed on metabolites extracted from cell pellets. Briefly, cell pellets were washed and snap frozen in 1 ml 80% methanol. Samples were probe sonicated for 5 seconds, power level 3 (Fisher Scientific Model 100 Sonicator). 5 ul of internal standard (Isotopically labeled amino acids, 1.25 mM, PN MSK-A2-1.2, Cambridge Isotope Laboratories) was added to a 100 ul aliquot of supernatant. 10 ul of this solution was diluted in 990 ul of buffer containing 95% acetonitrile, 5% 20 mM ammonium carbonate (pH 9.8). Quality control samples (QCs) were prepared by pooling 100 μl of each sample. All samples including QCs, where then analyzed by selected reaction monitoring (SRM) using a Waters XBridge Amide 1.0×50 mm, 3.5 μm column and a 10 mM ammonium carbonate (pH 10) acetonitrile buffer system coupled with a Sciex Qtrap 5500 triple quadrupole linear ion trap tandem mass spectrometer. The data acquisition included 317 transitions. Data were captured using Analyst, version 1.6.2 software (Sciex); peak integration was performed using Skyline, version 4.1 (Pino et al., 2020). […]

[4] = tested on: human CD8+ T cells; assay: Human CD8+ T cells activated in the presence of halofuginone (Seahorse, flow cytometry, DMF5 TCR transduction); format: cell-based
Method: Peripheral blood mononuclear cells were obtained from healthy donors following institutional review board approval. Written informed consent was obtained from all donors who provided the samples. PBMCs were magnetically sorted for naïve CD8+ T cells (Miltenyi Biotec) and activated with CD3/CD28 Dynabeads (Invitrogen) at 1:1 ratio in complete IMDM for 5 days in the presence of Halo (12.5 ng/mL) or vehicle control. For DMF5 TCR transduction, purified naïve CD8+ T cells were stimulated with CD3/CD28 Dynabeads at 1:1 ratio in complete IMDM media and 100 IU/ml recombinant human IL-2. Two days after stimulation, T cells were infection with PG13-derived virus encoding DMF5 TCR and a truncated NGFR tag, separated by 2A sequences. Halofuginone (12.5 ng/mL) or vehicle control was added on days 0 and 2. Phenotype was analyzed on day 5.

[5] = tested on: CD8+ T cells; assay: Ribo-Seq / RNA-seq gene expression profiling of halo-treated CD8+ T cells; format: cell-based, mouse; conditions: halo vs vehicle
[6] = Halo 50 ng/mL last 48 hours, vs vehicle

`Cn1cnc(N)c2ncnc1-2` [3MA] was tested. Which “OXPHOS in vehicle-treated cells” value ([1]; 3-MA 2.5 mM) did it give?
Its value is “no effect”.

And the “enhanced OXPHOS (basal OCR) in halo-treated cells” value [1]?
Its value is “entirely abrogated”.

And the “4-1BB or granzyme B expression in halo-treated cells” value ([2]; cultured in the presence of 3MA 2.5 mM)?
The value was “no difference”.

And the “IFN-γ in halo-treated cells” value [2]?
Its value is “marked reduction”.

For `O=C(CC1NCCCC1O)Cn1cnc2cc(Br)c(Cl)cc2c1=O` (stereo not shown) [halofuginone], which ATP levels [1, 6] is on record?
Its ATP levels is “increase”.

And the “OCR (oxygen consumption rate)” value [1, 6]?
The value was “increase”.

What about the “OCR:ECAR ratio” value [1, 6] of the same molecule?
The value was “increase”.

What about the “levels of amino acids” value [3] of the same molecule?
Its value is “primarily up-regulated”.

And the IFN-γ production ([2]; Halo 50 ng/mL for the last 48 hours of IL-2 expansion, vs vehicle)?
The IFN-γ production was “increased IFN-γ production”.

What about the CD98 expression [2, 6] of the same molecule?
Its CD98 expression is “enhanced”.

What about the “TNF-α and IL-2 production” value [2, 6] of the same molecule?
The value was “to a lesser extent, increased”.

And the “granzyme B expression” value [2, 6]?
The value was “significant increase”.

What about the “polyfunctionality (co-expression of IFN-γ, TNF-α, IL-2)” value [2, 6] of the same molecule?
The value was “increased polyfunctionality”.

What about the “surface expression of 4-1BB” value ([2]; flow cytometry, halo vs vehicle) of the same molecule?
The value was “increased percentage of cells expressing 4-1BB as well as a higher level of expression on a per cell basis”.

What about the “autophagy (fluorescent staining of autophagosomes)” value ([2]; halo-treated cells vs vehicle) of the same molecule?
Its value is “increased evidence of autophagy”.

And the p-mTOR ([2]; halo-treated cells vs vehicle)?
The p-mTOR was “increase in p-mTOR”.

And the “surface markers of Tcm lineage (CD62L, CD44, CD127, CD25)” value ([2]; halo-treated cells, same as vehicle treated cells)?
Its value is “CD62^Lo, CD44^Hi CD127^Lo and CD25^Hi”.

What about the “CD69+ CD103+ double-positive cells” value ([2]; halo-treated, unlike vehicle-treated control cells) of the same molecule?
Its value is “induced a population of CD69^+ CD103^+ double-positive cells”.

And the “expression of 4-1BB, Granzyme B and CD98 in TCR+ T cells” value ([4]; DMF5 TCR transduced, Halofuginone 12.5 ng/mL, day 5, majority of patients)?
Its value is “increased expression”.

What about the OXPHOS ([4]; Halo 12.5 ng/mL, 5 days) of the same molecule?
Its OXPHOS is “enhanced”.

And the “expression of 4-1BB and CD98” value ([4]; Halo 12.5 ng/mL, 5 days)?
Its value is “increasing”.

And the “transduction efficiency of the DMF5 TCR” value ([4]; Halofuginone 12.5 ng/mL added on days 0 and 2)?
Its value is “did not inhibit”.

And the “4-1BB expression (RNA)” value [5]?
Its value is “up-regulated”.

And the “Trm-associated genes, transcriptionally or translationally” value [5]?
The value was “very few of the Trm-associated genes were up-regulated”.

And the “electron transport chain (ETC) complex genes” value [5]?
The value was “increased both transcription and translation of all five complexes”.

What about the “genes associated with glycolysis, TCA cycle, fatty acid oxidation” value [5] of the same molecule?
Its value is “Increased enrichment of genes associated with glycolysis and the TCA cycle, but not fatty acid oxidation”.

What about the “ribosomal-associated Bhlhe40 transcripts” value [5] of the same molecule?
The value was “marked increase”.

What about the CD69 gene expression ([5]; among Trm-associated genes) of the same molecule?
The CD69 gene expression was “one of the most upregulated genes”.

What about the “expression of costimulatory and co-inhibitory molecules (transcriptional, translational and protein level)” value ([5]; panel of markers other than 4-1BB) of the same molecule?
The value was “not enhanced”.

How did the “effect on OCR in halo-treated cells” value ([1]; Etomoxir 4 μm injected in Seahorse) turn out when `CCOC(=O)[C@@]1(CCCCCCOc2ccc(Cl)cc2)CO1` [etomoxir] was run?
Its value is “minimal effects”.

With `CC[C@H]1/C=C/C=C/C[C@@H](C)[C@H](O)[C@@](C)(O)C(=O)[C@@H](C)[C@H](O)[C@@H](C)C(=O)[C@@H](C)[C@H](O)[C@@H](C)/C=C/C(=O)O[C@@H]2[C@H](C)[C@H](CC1)O[C@]1(CC[C@H](C)[C@H](C[C@@H](C)O)O1)[C@H]2C` [oligomycin] as the molecule, how does the “IFN-γ in halo-treated cells” value [2] read?
The value was “marked reduction”.

How did the “enhanced OXPHOS (basal OCR) in halo-treated cells” value [1] turn out when `NC1(C(=O)O)CC2CCC1C2` (stereo not shown) [BCH] was run?
Its value is “did not affect”.

What about the “halo-induced p-mTOR increase in the presence of inhibitor” value ([2]; halo-treated cells plus BCH) of the same molecule?
Its value is “reversed”.

What about the “expression of 4-1BB, Granzyme B and IFN-γ in halo-treated cells” value ([2]; inhibitor added concurrent with Halofuginone (Rapamycin 20 nM)) of the same molecule?
The value was “inhibition of expression”.
